{"source": "paper PMC6481345", "about": "“A novel anti-melanoma SRC-family kinase inhibitor” (Oncotarget, 2019)", "key": {"[1]": {"molecular_target": "native kinases in YUSIV and YUSIK lysates", "assay": "KiNativ in situ kinase profiling (summary over kinases)", "assay_type": "binding, human", "settings": "mTOR, EGFR, LCK and MEK1; read-out: IC50, range over kinases", "description": "(§1) The effect of SAB298 on a panel of 36 recombinant kinases, was screed with the radioisotope filter binding assay employing 10 concentrations of the compound with 10 µM ATP (Reaction Biology Corporation, Malvern, PA). In addition, we tested the endogenous kinome response to SAB298 (0.05 µM, 0.5 µM and 5 µM) in lysates from two melanoma cell lines (YUSIV and YUSIK) employing the KiNativ® platform (ActivX Biosciences Inc., La Jolla, CA). KiNativ® is a robust, high performance mass spectrometry (LC-MS^2) assay that uses biotinylated probes to measure relevant changes in the affinity to the ATP-binding sites of 205 native kinases as a function of cellular context. We also validated SAB298 effect on the activity of SRC-family kinases by probing for phosphorylated Y416, the marker of activated SFKs, with anti-IEDNEpYTAR antibodies (also known as Y419, #2101, Cell Signaling Technology, Beverly, MA). In some cases the cells were incubated overnight with 20 µM proteasome inhibitor MG-132 (CAS 133407-82-6, Millipore Sigma, Burlington, MA) to rescue degradation."}, "[2]": {"tested_on": "MITF", "assay": "Western blot, MITF levels", "assay_type": "cell-based, human", "settings": "melanoma cell lines, SAB298 0.5 µM, UM-164 1 µM, 6 hrs, SCH772984 0.5 µM", "description": "We used standard techniques to identify changes in intracellular signaling in response to various treatments. Briefly, melanoma cells were incubated with test compounds, using DMSO as a control, collected by scraping on ice, and lysed in RIPA buffer supplemented with protease and phosphatase inhibitors (MA #78428, and #78425, respectively, Thermo Fisher Scientific, Waltham, MA). Protein concentrations were measured with the BioRad kit (Bio-Rad Laboratories, Hercules, CA), SDS sample buffer was added, extracts were heated at 95°C, sonicated and centrifuged. Cell extracts (20 µg/lane) were fractionated in 3%–8% or 4–12 % tris-acetate gel (NP0006, NuPAGE Life Technologies). We probed with the following primary antibodies: phospho-SRC Tyr416 (CST #2101S), pSRC Tyr527 (#2105), SRC (#2108), pPI3K p85 Y458/p55 Y199 (#4228), LYN (C13F9, #2796), FYN (#4023), phospho-MEK1/2 pSer217/221 (#9121), MEK1/2, phospho-ERK2 pThr202/Tyr204 (#9101), ERK1/2 (#9107), phospho-p38 kinase T180/Y182 (#9216), p38 kinase (#9212), PP2A (#2259), pSHP2 Y542 (#3751), SHP2 (D50F2, #3397), ERBB2 (D8F12 XP(R), #4290), phospho-ERBB2 Y1196 (D66B7 #6942), MYC (D84C12, #5605); GAPDH (14C10, #2118), all from Cell Signaling Technology, Beverly, MA; phospho-PP2A Y307 (AF3989), and MITF (clone D5, #AF5769) from R&D Systems, Inc., Minneapolis, MN; p27KIP1 (#10241) and YES (#610375) from BD Biosciences, San Jose, CA; Cyclin D1 (#04-221) and β-actin (mouse mAb A5316) from MilliporeSigma, St. Louis, MO; PI3K Antibody (p85 alpha, NSJ R30480) from Bioreagents, 9921 Carmel Mountain Rd #352, San Diego, CA. All antibodies were used at the concentrations recommended by the manufacturers."}, "[3]": {"tested_on": "phospho-ERBB2 Y1196", "assay": "Western blot, phospho-ERBB2", "assay_type": "cell-based, human", "settings": "YUSOC, YUROB, YUSIV, YUTOGS", "description": "(§2) We used standard techniques to identify changes in intracellular signaling in response to various treatments. Briefly, melanoma cells were incubated with test compounds, using DMSO as a control, collected by scraping on ice, and lysed in RIPA buffer supplemented with protease and phosphatase inhibitors (MA #78428, and #78425, respectively, Thermo Fisher Scientific, Waltham, MA). Protein concentrations were measured with the BioRad kit (Bio-Rad Laboratories, Hercules, CA), SDS sample buffer was added, extracts were heated at 95°C, sonicated and centrifuged. Cell extracts (20 µg/lane) were fractionated in 3%–8% or 4–12 % tris-acetate gel (NP0006, NuPAGE Life Technologies). […]"}, "[4]": {"molecular_target": "SRC (Homo sapiens, UniProt P12931)", "sequence (P12931 whole entry)": "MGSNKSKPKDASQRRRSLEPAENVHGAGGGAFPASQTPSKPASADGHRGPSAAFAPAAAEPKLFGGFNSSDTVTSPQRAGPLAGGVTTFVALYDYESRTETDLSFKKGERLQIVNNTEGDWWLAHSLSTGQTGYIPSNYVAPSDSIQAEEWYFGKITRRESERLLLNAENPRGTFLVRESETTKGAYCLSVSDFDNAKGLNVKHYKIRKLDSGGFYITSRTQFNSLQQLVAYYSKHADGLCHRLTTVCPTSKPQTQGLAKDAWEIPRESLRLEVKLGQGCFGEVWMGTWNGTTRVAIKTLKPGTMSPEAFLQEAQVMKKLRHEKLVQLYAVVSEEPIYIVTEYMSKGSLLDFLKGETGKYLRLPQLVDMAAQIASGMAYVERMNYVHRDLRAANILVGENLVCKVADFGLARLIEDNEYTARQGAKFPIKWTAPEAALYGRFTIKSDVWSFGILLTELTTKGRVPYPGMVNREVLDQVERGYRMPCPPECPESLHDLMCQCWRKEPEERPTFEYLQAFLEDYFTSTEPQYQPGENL", "assay": "Radioisotope filter activity assay, recombinant kinase", "assay_type": "biochemical", "design": "purchased Reaction Biology Corporation", "settings": "10 point dose response, 10 µM ATP", "description": "as §1\n(§3) Supplemntary Table 3: Radioisotope filter activity assay Tests for SAB298 target protein\n(§4) *These are results from 10 point dose response test employed with 10 µM ATP. […]\n(§5) SRC TRCN0000195339 3ʹUTR […]\n(§6) YES TRCN0000001611 CDS […]\n(§7) FYN TRCN0000003099 CDS […]\n(§8) LY N TRCN0000230901 CDS […]"}, "[5]": {"molecular_target": "LCK (Homo sapiens, UniProt P06239)", "sequence (P06239 whole entry)": "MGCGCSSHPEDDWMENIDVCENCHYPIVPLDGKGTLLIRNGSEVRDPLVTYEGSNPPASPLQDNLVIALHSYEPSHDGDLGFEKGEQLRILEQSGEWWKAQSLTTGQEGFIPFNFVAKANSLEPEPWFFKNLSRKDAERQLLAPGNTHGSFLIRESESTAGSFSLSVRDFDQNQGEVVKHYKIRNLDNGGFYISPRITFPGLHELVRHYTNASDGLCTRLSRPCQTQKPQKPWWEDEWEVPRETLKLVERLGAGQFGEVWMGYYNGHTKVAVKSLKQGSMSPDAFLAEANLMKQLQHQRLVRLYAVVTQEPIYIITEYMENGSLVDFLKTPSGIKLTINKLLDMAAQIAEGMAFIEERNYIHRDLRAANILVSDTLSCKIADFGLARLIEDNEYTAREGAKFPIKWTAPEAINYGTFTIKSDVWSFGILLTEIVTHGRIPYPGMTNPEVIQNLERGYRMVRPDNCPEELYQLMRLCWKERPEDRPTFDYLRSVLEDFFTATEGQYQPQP", "assay": "Radioisotope filter activity assay, recombinant kinase", "assay_type": "biochemical", "design": "purchased Reaction Biology Corporation", "settings": "10 point dose response, 10 µM ATP", "description": "as §1, §3, §4, §5, §6, §7, §8"}, "[6]": {"molecular_target": "ERBB2 (Homo sapiens, UniProt P04626)", "sequence (P04626 23-1255)": "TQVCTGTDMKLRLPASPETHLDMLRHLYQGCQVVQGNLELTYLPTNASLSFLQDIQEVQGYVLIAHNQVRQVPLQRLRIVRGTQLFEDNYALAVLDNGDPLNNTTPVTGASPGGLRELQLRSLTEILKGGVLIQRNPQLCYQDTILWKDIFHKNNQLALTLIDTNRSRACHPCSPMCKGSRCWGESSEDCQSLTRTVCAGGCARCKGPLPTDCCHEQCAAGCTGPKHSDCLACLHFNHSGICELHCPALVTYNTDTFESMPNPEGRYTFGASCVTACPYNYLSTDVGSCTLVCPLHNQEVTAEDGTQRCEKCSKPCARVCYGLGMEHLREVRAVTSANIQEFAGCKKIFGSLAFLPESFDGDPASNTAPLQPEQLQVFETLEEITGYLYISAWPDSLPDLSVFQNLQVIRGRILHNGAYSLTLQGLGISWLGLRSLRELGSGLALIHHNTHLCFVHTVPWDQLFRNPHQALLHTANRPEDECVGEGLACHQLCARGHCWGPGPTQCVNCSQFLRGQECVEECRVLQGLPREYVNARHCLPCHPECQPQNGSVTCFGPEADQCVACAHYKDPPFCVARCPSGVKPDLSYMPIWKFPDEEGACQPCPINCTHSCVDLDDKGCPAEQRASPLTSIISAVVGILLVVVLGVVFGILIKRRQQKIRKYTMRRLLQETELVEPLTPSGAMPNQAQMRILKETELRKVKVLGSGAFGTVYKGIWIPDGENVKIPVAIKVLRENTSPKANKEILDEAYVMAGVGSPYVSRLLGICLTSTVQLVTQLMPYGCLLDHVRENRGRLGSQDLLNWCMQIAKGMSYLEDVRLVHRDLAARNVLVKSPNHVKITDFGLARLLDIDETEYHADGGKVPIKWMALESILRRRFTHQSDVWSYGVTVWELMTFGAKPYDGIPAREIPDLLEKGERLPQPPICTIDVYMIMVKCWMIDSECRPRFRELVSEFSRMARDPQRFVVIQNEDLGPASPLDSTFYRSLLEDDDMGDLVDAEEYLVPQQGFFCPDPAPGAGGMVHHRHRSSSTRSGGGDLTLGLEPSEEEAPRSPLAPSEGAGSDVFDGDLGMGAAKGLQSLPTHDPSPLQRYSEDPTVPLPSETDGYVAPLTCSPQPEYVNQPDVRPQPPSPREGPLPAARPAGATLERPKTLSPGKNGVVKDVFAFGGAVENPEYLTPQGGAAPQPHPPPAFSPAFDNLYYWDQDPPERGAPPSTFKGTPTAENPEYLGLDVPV", "assay": "Radioisotope filter activity assay, recombinant kinase", "assay_type": "biochemical", "design": "purchased Reaction Biology Corporation", "settings": "10 point dose response, 10 µM ATP", "description": "as §1, §3, §4, §5, §6, §7, §8"}, "[7]": {"molecular_target": "ABL2 (Homo sapiens, UniProt P42684)", "sequence (P42684 whole entry)": "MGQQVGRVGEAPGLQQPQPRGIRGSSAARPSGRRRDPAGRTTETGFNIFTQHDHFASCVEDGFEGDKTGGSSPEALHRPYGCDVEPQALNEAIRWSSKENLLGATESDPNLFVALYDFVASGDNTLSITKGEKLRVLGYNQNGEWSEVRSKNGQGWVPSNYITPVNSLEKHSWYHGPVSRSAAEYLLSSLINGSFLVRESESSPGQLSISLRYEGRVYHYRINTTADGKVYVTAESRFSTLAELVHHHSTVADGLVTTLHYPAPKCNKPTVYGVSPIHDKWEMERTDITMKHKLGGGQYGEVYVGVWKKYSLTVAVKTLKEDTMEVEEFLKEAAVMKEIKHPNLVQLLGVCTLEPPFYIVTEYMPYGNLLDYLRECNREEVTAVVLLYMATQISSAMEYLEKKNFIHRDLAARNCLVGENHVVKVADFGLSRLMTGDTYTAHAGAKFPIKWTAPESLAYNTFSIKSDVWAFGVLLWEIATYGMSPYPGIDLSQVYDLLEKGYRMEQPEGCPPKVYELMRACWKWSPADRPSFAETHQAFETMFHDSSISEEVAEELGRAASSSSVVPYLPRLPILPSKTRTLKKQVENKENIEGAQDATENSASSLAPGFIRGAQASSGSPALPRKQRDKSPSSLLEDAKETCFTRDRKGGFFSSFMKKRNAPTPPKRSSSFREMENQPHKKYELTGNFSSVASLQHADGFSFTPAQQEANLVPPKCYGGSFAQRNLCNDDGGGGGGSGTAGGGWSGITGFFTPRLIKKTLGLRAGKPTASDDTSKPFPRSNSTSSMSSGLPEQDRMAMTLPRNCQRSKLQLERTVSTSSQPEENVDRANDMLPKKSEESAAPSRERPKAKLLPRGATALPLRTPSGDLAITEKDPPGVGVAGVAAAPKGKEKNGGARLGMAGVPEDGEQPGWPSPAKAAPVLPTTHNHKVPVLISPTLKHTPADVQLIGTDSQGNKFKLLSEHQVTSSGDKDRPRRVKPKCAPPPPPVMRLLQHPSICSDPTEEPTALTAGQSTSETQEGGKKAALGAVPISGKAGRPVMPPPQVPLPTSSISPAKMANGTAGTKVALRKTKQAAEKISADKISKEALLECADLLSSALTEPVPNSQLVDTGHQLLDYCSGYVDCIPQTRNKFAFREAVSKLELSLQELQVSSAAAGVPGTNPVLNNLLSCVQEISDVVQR", "assay": "Radioisotope filter activity assay, recombinant kinase", "assay_type": "biochemical", "design": "purchased Reaction Biology Corporation", "settings": "10 point dose response, 10 µM ATP", "description": "as §1, §3, §4, §5, §6, §7, §8"}, "[8]": {"tested_on": "phospho-PP2A Y307", "assay": "Western blot, inactivated PP2A", "assay_type": "cell-based, human", "settings": "YUSIK and YUSIV melanoma cells", "description": "as §2"}, "[9]": {"tested_on": "phospho-SHP2 Y542", "assay": "Western blot, phospho-SHP2", "assay_type": "cell-based, human", "settings": "melanoma cell lines", "description": "as §2"}}}
{"smiles": "Nc1ncnc2c1c(-c1ccc(Oc3ccccc3)cc1)nn2C[C@@H]1SSC[C@@H]1O", "note": "[SAB298, (3S, 4S)-3-((4-amino-3-(4-phenoxyphenyl)-1H-pyrazolo[3,4-d]pyrimidin-1-yl)methyl)-1,2-dithiolan-4-ol]", "values": [{"measurement": "IC50", "setting": "[1]", "result": "1.3 to 2.9", "unit": "µM"}, {"measurement": "MITF levels", "setting": "[2]", "result": "suppressed MITF levels in four out of seven melanoma cell lines"}, {"measurement": "phospho-ERBB2 Y1196 level", "setting": "[3]", "result": "suppressed phospho-ERBB2 Y1196"}, {"measurement": "IC50", "setting": "[4]", "result": 0.269, "unit": "µM"}, {"measurement": "IC50", "setting": "[5]", "result": 0.0078, "unit": "µM"}, {"measurement": "IC50", "setting": "[6]", "result": 8.86, "unit": "µM"}, {"measurement": "IC50", "setting": "[7]", "result": 2.56, "unit": "µM"}, {"measurement": "inactivated PP2A (phospho-PP2A Y307) level", "setting": "[8]", "result": "increase in the levels of inactivated PP2A"}, {"measurement": "phospho-SHP2 Y542 level", "setting": "[9]", "result": "inactivated phospho-SHP2 Y542 in YUSIK, YUROB and YUSOC melanoma cell lines, but not in YUGASP"}]}
